Data published in article PMC9228592, “Dichloroacetyl Amides of 3,5-Bis(benzylidene)-4-piperidones Displaying Greater Toxicity to Neoplasms than to Non-Malignant Cells” (Medicines, 2022).
*1 amine or outer side, *2 acyl side, *3 side chain or, on linkers, in order; H or OH if unused. Where a SMILES comes first, the peptide text is derived from it. Bridges are numbered along the chain shown (N, C = ends). Roman numbers before positions name the chains, in order. [ ]: non-standard residue; d: D form. Actinocin(9to1) = Cc1c2oc3c(C)ccc(C(=O)[*:1])c3nc-2c(C(=O)[*:2])c(N)c1=O; NMeV = CN[C@H](C(=O)O)C(C)C; Sar = CNCC(=O)O

How the values were obtained:
Type in all cases: cell-based, human
[1] = Cytotoxicity (MTT, 48 h) against HPLF non-malignant cells; settings: human, normal periodontal ligament fibroblasts (HPLF), mean ± S.D. of triplicate
Excerpt: (§1) The target cells used in our study were human oral squamous cell carcinoma cell lines Ca9-22 (purchased from RIKEN Cell Bank, Tukuba, RCB-1976), HSC-2 (RCB1945), HSC-3 (RCB1975), HSC-4 (RCB1902), and three human normal oral cells, gingival fibroblast (HGF), periodontal ligament fibroblast (HPLF), and pulp cells (HPC) [established from the first premolar extracted tooth in the lower jaw (because of dysfunctional position or orthodontic treatment) and periodontal tissues of a child, according to the guideline of the Institutional Board of Meikai University Ethics Committee (No. A0808)], after obtaining informed consent from the patients. These cells were incubated for 48 h with the indicated concentrations of test samples or reference compounds sodium dichloroacetate (purchased from Sigma-Aldrich Chemical Company, Saint Louis, MO, USA), 5-fluorouracil (5-FU) from Kyowa (Tokyo, Japan), and doxorubicin (DXR) (St. Louis, MO, USA) and vehicle (DMSO) (0.008, 0.016, 0.031, 0.063, 0.125, 0.25, 0.5, and 1%) in Dulbecco’s Modified Eagle Medium (DMEM) media, which was supplemented with 10% heat-inactivated fetal bovine serum. Cell viability was determined by the MTT method. Cytotoxicity caused by the vehicle (DMSO) was subtracted.

[2] = Cytotoxicity (MTT, 48 h) against HGF non-malignant cells; settings: human, normal gingival fibroblasts (HGF), mean ± S.D. of triplicate
Excerpt: as §1

[3] = tested on: Ca9-22, HSC-2, HSC-3, and HSC-4 cells; assay: Average cytotoxicity, selectivity and PSE over the four carcinoma lines; settings: for CC50: Homo sapiens, average over Ca9-22, HSC-2, HSC-3, HSC-4; for Average SI: average of SI over Ca9-22, HSC-2, HSC-3, HSC-4
Excerpt: as §1
(§2) SI was calculated by dividing the average CC50 value (concentration of the compound to kill 50% of the cells) of the compound towards HGF, HPLF, and HPC cells by the CC50 value of the compound against a specific neoplastic cell line.
PSE reflects both the potencies and differences in cytotoxicity to neoplasms and non-malignant cells. This value was the product of the reciprocal of the average CC50 value of the compounds towards Ca9-22, HSC-2, HSC-3, and HSC-4 cells and the average SI value × 100.

[4] = tested on: Ca9-22 squamous cell carcinoma cells; assay: Cytotoxicity (MTT, 48 h) against Ca9-22 cells; settings: for CC50: Homo sapiens, Ca9-22, 48 h, MTT, mean ± S.D. of triplicate; for SI (Ca9-22): average CC50 towards HGF, HPLF, HPC divided by CC50 against Ca9-22
Excerpt: as §1, §2

[5] = Cytotoxicity (MTT, 48 h) against HPC non-malignant cells; settings: female, human, normal pulp cells (HPC), mean ± S.D. of triplicate
Excerpt: as §1

[6] = tested on: HSC-3 squamous cell carcinoma cells; assay: Cytotoxicity (MTT, 48 h) against HSC-3 cells; settings: for CC50: Homo sapiens, HSC-3, 48 h, MTT, mean ± S.D. of triplicate; for SI (HSC-3): average CC50 towards HGF, HPLF, HPC divided by CC50 against HSC-3
Excerpt: as §1, §2

Ca9-22 cells [7] = assay: Cell cycle assay in Ca9-22 cells; settings: 20 h
Procedure: The evaluation of varying quantities of 1d,e,k on the cell cycle in Ca9-22 cells was undertaken by a literature method. In brief, Ca9-22 cells were treated for 20 h without (control) or with the indicated concentrations of the test samples. To neglect the cytotoxicity effect of DMSO, all samples contained 0.1% DMSO. Cells (approximately 10^6 cells) were harvested, fixed for 1 h on ice with 1% paraformaldehyde, washed twice by phosphate-buffered saline, treated for 30 min at 37 °C with 0.2 mg/mL RNase A (ribonuclease A), stained for 15 min at room temperature with 0.01% propidium iodide in the presence of 0.01% NP-40 (nonyl phenoxypolyethoxyethanol) to prevent cell aggregation, filtered through Falcon® cell strainers (pore size: 40 µm) (Corning, NY, USA), subjected to cell sorting (SH800 Series; SONY Imaging Products and Solutions Inc., Kanagawa, Japan), and then analyzed with Cell Sorter Software version 2.1.2. (SONY Imaging Products and Solutions Inc., Kanagawa, Japan).

[8] = tested on: HSC-4 squamous cell carcinoma cells; assay: Cytotoxicity (MTT, 48 h) against HSC-4 cells; settings: for CC50: Homo sapiens, HSC-4, 48 h, MTT, mean ± S.D. of triplicate; for SI (HSC-4): average CC50 towards HGF, HPLF, HPC divided by CC50 against HSC-4
Excerpt: as §1, §2

[9] = Average cytotoxicity over the three non-malignant cells; settings: female, human, normal oral cells HGF, HPLF and HPC (average over the three)
Excerpt: as §1

[10] = tested on: HSC-2 squamous cell carcinoma cells; assay: Cytotoxicity (MTT, 48 h) against HSC-2 cells; settings: for CC50: Homo sapiens, HSC-2, 48 h, MTT, mean ± S.D. of triplicate; for SI (HSC-2): average CC50 towards HGF, HPLF, HPC divided by CC50 against HSC-2
Excerpt: as §1, §2

Ca9-22 cells [11] = assay: Mitotic accumulation in Ca9-22 cells
Procedure: Another way in which cytotoxicity could occur is by initiating mitosis. In order to examine this possibility, different concentrations of the potent cytotoxin 1k that were 3, 10, and 30 times the CC50 value were incubated with Ca9-22 cells for 20 h. […] In order to explore the possibility that the dichloroacetyl group contributed to this effect, concentrations of 2a that were 3, 10, and 30 times the CC50 concentration were incubated with Ca9-22 cells for 20 h. […] The question arose as to the way in which this observation could be useful in anticancer drug design. Cells which are stimulated to divide are likely more sensitive to a subsequent attack of a cytotoxin when cells are in a resting stage, for example.

procaspase 3 = assay: Procaspase 3 cleavage in Ca9-22 cells (Western blot)
Procedure: (§3) The effect of 20 h incubation of different concentrations of 1k and 2a with Ca9-22 cells on the cleavage of PARP and procaspase 3 cleavage was undertaken using a reported procedure. In brief, the control and treated Ca9-22 cells at near confluent phase were collected and lysed, and protein samples of cell lysates (15 µg) were applied to SDS-polyacrylamide gel electrophoresis. After electrophoresis, the separated proteins were transferred onto a PVDF (polyvinylidene fluoride) filter. The blots were treated in skim milk and then probed for 120 min with a primary antibody cocktail (1:250) from an Apoptosis Western Blot Cocktail kit (purchased from Abcam, Cambridge, UK). The blots were washed and probed with horseradish peroxidase conjugated secondary antibody cocktail (1:100). Immunoreactivities were determined using Amer-sham ECL Select. Images were acquired using ChemiDoc MP System and Image Lab 4.1 software (Bio-Rad Laboratories, Hercules, CA, USA).

PARP = PARP cleavage in Ca9-22 cells (Western blot)
Procedure: as §3

Row | SMILES | CC50 at 48 h [1] [µM] | CC50 at 48 h [2] [µM] | CC50 [3] [µM] | Average SI [3] | CC50 [4] [µM] | SI (Ca9-22) [4] | CC50 at 48 h [5] [µM] | CC50 [6] [µM] | SI (HSC-3) [6] | CC50 [8] [µM] | SI (HSC-4) [8] | CC50 at 48 h [9] [µM] | CC50 [10] [µM] | SI (HSC-2) [10] | also measured
1 | O=C1/C(=C/c2ccc(Cl)cc2)CN(C(=O)C(Cl)Cl)C/C1=C\c1ccc(Cl)cc1 [Compound 1d] | 1.29 ± 0.14 | 2.13 ± 0.12 | 0.13 | 14.7 | 0.05 | 28.8 | 0.9 ± 0.02 | 0.19 ± 0.02 | 7.58 | 0.18 ± 0.04 | 8.00 | 1.44 | 0.1 ± 0.01 | 14.4 | G2M cell population (Ca9-22 cells [7]; 0.8 µM, p < 0.05): most prominent increase; effect on the cell cycle (Ca9-22 cells [7]; 0.1, 0.2, and 0.4 µM): little effects
2 | COc1ccc(/C=C2\CN(C(=O)C(Cl)Cl)C/C(=C\c3ccc(OC)c(OC)c3)C2=O)cc1OC [Compound 1g] | 2.83 ± 1.53 | 8.13 ± 2.47 | 0.19 | 23.9 | 0.11 ± 0.02 | 36.8 | 1.19 ± 0.09 | 0.28 ± 0.03 | 14.5 | 0.2 ± 0.04 | 20.3 | 4.05 | 0.17 ± 0.02 | 23.8 | –
3 | O=C1C(=Cc2ccccc2)CNCC1=Cc1ccccc1 [Compound 2a, 3,5-bis(benzylidene)-4-piperidone] | 9.1 ± 2.87 | 21.7 ± 6 | 0.54 | 30.3 | 0.19 ± 0.03 | – | 4.3 ± 0.72 | 0.8 ± 0.07 | 14.6 | 0.79 ± 0.22 | 14.8 | 11.7 | 0.39 ± 0.01 | 30.0 | mitotic accumulation (Ca9-22 cells [11]; 2 µM and 6 µM, 20 h): mitotic accumulation occurred; cleavage of procaspase to caspase 3 (procaspase 3; 2 and 6 µM, 20 h): cleavage of procaspase to caspase 3 was observed; PARP cleavage (PARP; 2 and 6 µM, 20 h): PARP was cleaved
4 | CC(=O)N1C/C(=C\c2ccccc2)C(=O)/C(=C/c2ccccc2)C1 [Compound 2b] | 5.6 ± 1.13 | 23 ± 1.7 | 1.42 | 9.58 | 0.64 ± 0.01 | 17.3 | 4.83 ± 0.12 | 2.25 ± 0.08 | 4.93 | 1.57 ± 0.12 | 7.07 | 11.1 | 1.23 ± 0.07 | 9.02 | –
5 | O=c1[nH]cc(F)c(=O)[nH]1 [Compound 5-FU, 5-fluorouracil, reference compound] | > 1000 | > 1000 | 31 | >55.2 | 24.5 ± 12.3 | >40.7 | > 987 | 61.3 ± 9.8 | >16.3 | 7.58 ± 0.5 | – | > 996 | 30.5 ± 7.1 | >32.7 | –
6 | COc1cccc2c1C(=O)c1c(O)c3c(c(O)c1C2=O)C[C@@](O)(C(=O)CO)C[C@@H]3O[C@H]1C[C@H](N)[C@H](O)[C@H](C)O1 [DXR, doxorubicin, reference compound] | > 10 | > 10 | 0.25 | >46.6 | 0.43 ± 0.04 | >22.2 | > 8.65 | 0.26 ± 0.21 | >36.7 | 0.12 | >79.6 | > 9.55 | 0.2 ± 0.02 | >47.8 | –
7 | Cc1c2oc3c(C)ccc(C(=O)N[C@@H]4C(=O)N[C@H](C(C)C)C(=O)N5CCC[C@H]5C(=O)N(C)CC(=O)N(C)[C@@H](C(C)C)C(=O)O[C@@H]4C)c3nc-2c(C(=O)N[C@@H]2C(=O)N[C@H](C(C)C)C(=O)N3CCC[C@H]3C(=O)N(C)CC(=O)N(C)[C@@H](C(C)C)C(=O)O[C@@H]2C)c(N)c1=O [actinomycin D, reference compound] (I: T[dV]P[Sar][NMeV] / II: T[dV]P[Sar][NMeV]; ester I:1-I:C, II:1-II:C; linker I:N-II:N via Actinocin(9to1)) | – | – | – | – | – | – | – | – | – | – | – | – | – | – | mitosis (Ca9-22 cells [11]; 1 µM): Increased mitosis; procaspase 3 cleavage (procaspase 3; 1 µM): Cleavage; PARP cleavage (PARP; 1 µM): Cleavage
